Read-outs that look alike come from different tables or passages of the source.
Assays:
[1] = test system: bone marrow progenitors; settings: for CFU-C/10⁴ cells (No. of bone marrow colonies) / R.C.S. (Relative Cell Survival): 5FU lethal dose (7.5mg) alone; for R.C.S. (Relative Cell Survival) / R.C.S.: saline = 1.0
Procedure: The DPPE and saline were administered 90 minutes prior to the 5FU. Bone marrow cell counts were made at 24 hours and 48 hours post administration.
Experiments paralleling those described above with 5FU were carried out employing a lethal dose of adriamycin (20mg/kg).

[2] = test system: prostaglandin (PG)I₂; assay: Prostaglandin level in the gut after DPPE treatment; format: in vivo
From the text: In addition, the antagonism results in an increase in the levels of prostaglandins (natural substances which are known to protect tissues from various injurious agents) in the tissue. For example, DPPE treatment results in an increase by 500% in prostaglandin (PG)I₂, a protective prostaglandin, in the gut.

[3] = test system: human breast cancer cell (MCF-7); assay: Thymidine incorporation and cytotoxicity in breast cancer cells; format: cell-based; settings: 0.25 nM of thymidine, Figure 5
Procedure: The experiment was again repeated using human breast cancer cell (MCF-7) with 0.25 nM of thymidine added. The results were plotted graphically and appear as Figure 5.

[4] = test system: Spleen cells from BALB/C mice; assay: Thymidine incorporation into DNA of Concanavalin A-stimulated lymphocytes; format: cell-based
Procedure: Spleen cells from BALB/C mice were stimulated with Concanavalin A (5 µg/ml) for thymidine incorporation. The cells then were treated with varying does of DPPE and the level of thymidine incorporated was determined. The results were plotted graphically and appear as Figure 1.
The experiment was repeated using 2.5 µg/ml of Concanavalin A in place of 5 µg/ml and 2% fetal calf serum in place of 10%. The results obtained are illustrated in Figure 2.

[5] = test system: DBA/2 mice; assay: In vivo host cytoprotection from a lethal dose of adriamycin; settings: DPPE 2 mg/kg 1 hour (n=12) or 15 minutes (n=6) prior to 15 mg/kg of adriamycin, after 30 days
Procedure: Saline or DPPE (2 mg/kg) were administered to DBA/2 mice 1 hour (n=12) or 15 minutes (n=6) prior to administration of 15 mg/kg of adriamycin. The number of survivors after 30 days was determined.

[6] = test system: patients with advanced cancer; assay: Clinical study in patients with advanced cancer
Procedure: A clinical study was carried out with 14 patients with advanced cancer. • (a) DPPE alone was administered to patients to determine a safe dose range in humans.

[7] = test system: C-3 fibrosarcoma cells; assay: In vivo augmentation of adriamycin anti-tumor activity in a murine sarcoma model; set-up: species or system C3H mice; settings: intraperitoneally day 1, followed 60 days
Procedure: C-3 fibrosarcoma cells (3 x 10⁵) were injected into the left gluteal region of C3H mice on day 0. On day 1, the mice were provided with treatment by a combination of DPPE and adriamycin, administered intraperitoneally. The DPPE was administered 60 minutes prior to administration of the adriamycin. Mice also were administered with saline, DPPE alone and adriamycin alone.
Animals in the experiments (n=12) were followed for 60 days. At the end of the experimental period, those animals free of palpable tumors were considered cured.

[8] = test system: certain B cells; assay: Interleukin-2 stimulated antibody formation in B cells; format: cell-based
From the text: As with bone marrow cells, the treatment of normal proliferating lymphocytes (immune cells), according to the invention, results in a dose-dependent blocking of DNA synthesis and a shut-down of these cells without causing cytotoxicity. The antagonist has an effect on both T-lymphocytes and B-lymphocytes in the immune system. […] DPPE also blocks the stimulation of antibody formation by the mediator interleukin-2 in certain B cells, resulting is a decrease in antibody formation.

[9] = test system: ulcer formation; settings: in the presence of noxious agents, such as alcohol and cysteamine; see US-A-4,829,068; cited from earlier work
[10] = test system: virally-infected non-senescing transformed spleen-derived lymphocytes (S-10); assay: Thymidine incorporation and cytotoxicity in virally-infected transformed lymphocytes; format: cell-based, BALB/C origin
Procedure: The experiment of Example VI was repeated employing virally-infected non-senescing transformed spleen-derived lymphocytes (S-10) also of BALB/C origin with 0.25 nM of ³H-thymidine added. The results were plotted graphically and appear as Figures 3 and 4 respectively. As may be seen therein, in contrast to Figures 1 and 2, 25 µM of DPPE caused approximately 50% cytotoxicity to the virally-infected cells. When adjusted for cell number, thymidine incorporation increased at cytotoxic concentrations of DPPE (10 to 25 µM).

[11] = test system: mice
[12] = test system: B16 melanoma cells; assay: In vivo augmentation of BCNU anti-tumor activity in a B16 melanoma lung metastasis model; set-up: species or system C57Bl mice; settings: for (% control) of lung metastases / Numbers of lung metastases / Median Survival: intraperitoneal day 1; for (% control) of lung metastases / Numbers of lung metastases: lungs at day 14; for Numbers of lung metastases: saline 241; for Median Survival: saline 19; for Size of lung metastases: Macro means visually determined, Micro means microscopically only
Procedure: 5 x 10⁴ B16 melanoma cells were injected intravenously into the tail vein of C57Bl mice at day 0. The mice were treated with either saline, 32mg/kg of DPPE, 1mg of BCNU or a combination of 32mg/kg of DPPE and 1mg of BCNU, by intraperitoneal injection on day 1. The DPPE was administered 60 minutes before the BCNU.
In each group, six of the twelve animals were sacrificed at day 14 and lungs were removed for determination of metastasis. The remaining six animals were followed to death. The numbers and size of the lung metastases were determined by visual or microscope count.

[13] = test system: malignant cells; settings: as described in US-A- No. 4,803,227; cited from earlier work
[14] = administered five hours or more prior to the chemotherapeutic agent; cited from earlier work
[15] = test system: B16f10 melanoma cells; assay: In vivo augmentation of daunorubicin anti-tumor activity in a B16 melanoma lung metastasis model; set-up: species or system mice; settings: Daunorubicin 12.5 mg/kg alone, 24 hours after cells
Procedure: The procedure of Example III was repeated employing daunorubicin in place of BCNV. Groups of six mice were injected with B16f10 melanoma cells and 24 hours later received saline, 4 mg/kg of DPPE alone, a non-lethal dose of daunorubicin alone (12.5 mg/kg) or DPPE (4, 25 or 50 mg/kg) one hour prior to daunorubicin (12.5 mg/kg). All animals were followed to death or for 60-days post injection, and sacrificed for lung metastases.

[16] = 25 µM DPPE, Concanavalin A 5 µg/ml, 10% fetal calf serum, Figure 1
[17] = DPPE 0.2 mg/kg daily, patients treated with Adriamycin (60 mg/m²)
[18] = Adriamycin lethal dose (20mg/kg) alone, 24h
[19] = Adriamycin lethal dose (20mg/kg) alone, 48h

SMILES: O=c1[nH]cc(F)c(=O)[nH]1 [5FU, 5-fluorouracil]
- CFU-C/10⁴ cells (No. of bone marrow colonies) ([1]; 24h): 0.2 CFU-C/10⁴ cells
- R.C.S. (Relative Cell Survival) ([1]; 24h): 0.006
- CFU-C/10⁴ cells (No. of bone marrow colonies) ([1]; 48h): 0.09 CFU-C/10⁴ cells
- R.C.S. (Relative Cell Survival) ([1]; 48h): 0.002

SMILES: CCN(CC)CCOc1ccc(Cc2ccccc2)cc1 [DPPE, N,N-diethyl-2-[4-(phenylmethyl)-phenoxy]ethanamine]
- increase in prostaglandin (PG)I₂ in the gut [2]: 500%
- cytotoxicity and thymidine incorporation compared with S-10 cells [3]: Analogous results
- cell survival [4, 16]: does not adversely affect
- thymidine incorporation into DNA [4, 16]: completely blocks
- concentrations of DPPE which inhibited DNA synthesis ([4]; Concanavalin A 2.5 µg/ml, 2% fetal calf serum, Figure 2): 5 µm
- cytotoxicity ([4]; at 5 µm DPPE, Concanavalin A 2.5 µg/ml, 2% fetal calf serum, Figure 2): no significant cytotoxicity
- proliferation of T-lymphocytes ([4]; in the presence of Concanavalin A): completely antagonize
- Number of Survivors ([5]; saline group 4/12): 13/18
- Number of Survivors (percent) ([5]; saline group 33%): 72%
- mouth ulceration ([6]; 72-hour infusion of low dose DPPE, one patient): prevented
- acute and delayed gastrointestinal side effects of Adriamycin ([6]; DPPE 0.2 mg/kg daily as a 72-hour infusion, Adriamycin 60 mg/m², four patients, two treatments each): block completely
- anti-emetic effect ([6]; DPPE 0.2 mg/kg daily, 24-hour infusion, first 24 to 48 hours following Adriamycin, delayed nausea, vomiting and/or anorexia at 72 or 96 hours in many patients): effective anti-emetic therapy
- amelioration of nausea, vomiting, anorexia and stomatitis [6, 17]: over 90%
- patients in whom nausea, vomiting, anorexia and stomatitis were prevented or ameliorated [6, 17]: 6/6
- toxicity ([6]; DPPE alone, 6 mg/kg administered IV over 2 hours): significant toxicity was absent
- highest non-toxic dosage ([6]; DPPE alone, given intravenously over a one-hour period): 4 mg/kg
- effect on platelets, hemoglobin or biochemistry ([6]; human, in vivo): No significant effect
- CNS toxicity ([6]; human, in vivo, 6 mg/kg): dose limiting
- drop in body core temperature ([6]; human, in vivo, 6 mg/kg): 1-2 °C
- threshold for CNS toxicity ([6]; human, in vivo, 1 h): 240 mg/M²
- changes in biochemistries or blood counts ([6]; human, in vivo, iv, 0.2 mg/kg): not to cause any significant changes
- clinical side effects ([6]; human, in vivo, iv, 0.2 mg/kg): entirely without clinical side effects
- antiemetic effect against Adriamycin ([6]; single iv doses of DPPE (1, 2, 4 mg/kg) given over 1 hour): significantly antiemetic
- Number of Mice Tumor-Free (n=12) ([7]; DPPE 50mg/kg alone): 0
- stimulation of antibody formation by interleukin-2 [8]: blocks
- ulcer formation [9]: completely block
- cytotoxicity to the virally-infected cells ([10]; 25 µM of DPPE, S-10 cells, Figures 3 and 4): approximately 50%
- thymidine incorporation adjusted for cell number ([10]; at cytotoxic concentrations of DPPE (10 to 25 µM), 0.25 nM ³H-thymidine): increased
- CFU-C/10⁴ cells ([1]; DPPE 4mg/kg alone, 24h): 42.3 CFU-C/10⁴ cells
- R.C.S. ([1]; DPPE 4mg/kg alone, 24h): 0.97
- CFU-C/10⁴ cells ([1]; DPPE 4mg/kg alone, 48h): 41.3 CFU-C/10⁴ cells
- R.C.S. ([1]; DPPE 4mg/kg alone, 48h): 0.97
- threshold for CNS toxicity [11]: 240 mg/M²
- (% control) of lung metastases ([12]; DPPE 32mg/kg alone): 91%
- Numbers of lung metastases ([12]; DPPE 32mg/kg alone): 219
- Median Survival ([12]; DPPE 32mg/kg alone): 21 days
- Size of lung metastases ([12]; DPPE 32mg/kg alone): All Macro
- effect on malignant cells in vitro [13]: damages and/or kills

SMILES: COc1cccc2c1C(=O)c1c(O)c3c(c(O)c1C2=O)C[C@@](O)(C(=O)CO)C[C@@H]3O[C@H]1C[C@H](N)[C@H](O)[C@H](C)O1 [Adriamycin, doxorubicin]
- Number of Mice Tumor-Free (n=12) ([7]; Adriamycin 2mg/kg alone): 0
- CFU-C/10⁴ cells [1, 18]: 1.8 CFU-C/10⁴ cells
- R.C.S. [1, 18]: 0.04
- CFU-C/10⁴ cells [1, 19]: 0.65 CFU-C/10⁴ cells
- R.C.S. [1, 19]: 0.006

SMILES: N[C@H](CO)Cc1c[nH]cn1 [L-histidinol]
- effective doses [14]: approximately 1000 mg/kg of tissue

SMILES: O=NN(CCCl)C(=O)NCCCl [BCNU, reference compound]
- (% control) of lung metastases ([12]; BCNU 1mg alone): 60%
- Numbers of lung metastases ([12]; BCNU 1mg alone): 144
- Median Survival ([12]; BCNU 1mg alone): 24 days
- Size of lung metastases ([12]; BCNU 1mg alone): All Macro

SMILES: COc1cccc2c1C(=O)c1c(O)c3c(c(O)c1C2=O)C[C@@](O)(C(C)=O)C[C@@H]3O[C@H]1C[C@H](N)[C@H](O)[C@H](C)O1 [Daunorubicin, daunorubicin]
- No. Cures (n=6) ([15]; followed 60 days): 0
- Median Survival ([15]; followed to death or 60 days, saline 17): 25 days
